Results from the METLIN SMRT retention time set (Domingo-Almenara et al. 2019).

Experiment: gradient 5% acetonitrile 3 min, to 50% in 2 min, to 85% in 15 min, held 3 min, 100 µL/min
Conditions: column: Zorbax Extend-C18 2.1 x 50 mm; eluents: water / acetonitrile, 0.1% formic acid
In short: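 Each retention time is based on an adduct peak selected computationally and verified by manual inspection. Measurements used HPLC–quadrupole time-of-flight mass spectrometry in positive and negative ionization mode on mixtures of ~100 pure standards. Chromatography ran on a Zorbax Extend-C18 column (2.1 × 50 mm, 1.8 μm) at 100 μL/min with water and acetonitrile, each containing 0.1% formic acid, and dead and dwell volumes of 40 μL and 900 μL.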

RP-LC retention time [s]	Compound
826	CN1CC(=O)N(CC(=O)Nc2ccc(Cl)c(C(F)(F)F)c2)c2ccccc2C1=O
632	O=S(=O)(c1ccc(-c2nnc(C3CC3)o2)o1)N1CCN(c2ccccn2)CC1
937	Cc1ccc(-c2noc(C3CC3)n2)cc1S(=O)(=O)N1CCC(C(=O)Nc2nccs2)CC1
826	COCCCN1C(=O)c2cc(-c3ccc(OC)cc3)nn2CC1(C)C(=O)NCc1ccccc1 (configuration not stated)
614	CCOc1ccc(-c2cc(=O)n(CC(=O)NCCn3ncccc3=O)cn2)cc1
738	O=C(Cn1c(=O)oc2ccccc21)NCC1CCN(C(=O)c2cc3ccccc3o2)CC1
892	CCOc1ccc(CNC(=O)COc2nc(C)nc3oc(C)c(C)c23)cc1
997	Cc1ccc(C(=O)N2CCc3cn(C)c4cccc(c34)C2)cc1F
924	Cc1cc(F)ccc1NS(=O)(=O)c1ccc2c(c1)C(=O)N(C)c1ncccc1O2
1170	COC(=O)c1ccc2c(=O)n(-c3ccccc3)c(N3CCCCC3)nc2c1
712	COc1ccc(C(=O)Nc2ccc3c(c2)Sc2ncccc2C(=O)N3C)cc1OC
594	O=C(c1ccc2cc[nH]c2c1)N1CCN(C(=O)c2cc(-c3ccncc3)n[nH]2)CC1
1260	CCCCOc1ccc(Nc2cc(Cl)ccc2C(=O)O)cn1
1200	Cc1cc(C(=O)N(CCn2nc(C)cc2C)c2nc3c(C(C)C)cccc3s2)on1
607	CS(=O)(=O)N1CC[C@H]2CN(C(=O)c3ccc4ncccc4c3)C[C@@]2(CF)C1
812	COC(=O)c1c(NC(=O)c2cnn(-c3ccccc3)c2C)sc2c1CCN(C(C)=O)C2
701	CSc1ccc(CNC(=O)C2CCCN(C(=O)c3[nH]c(C)cc3C)C2)cc1 (configuration not stated)
902	O=C(Cn1nc2c3cc(-c4ccccc4)nn3ccn2c1=O)Nc1ccccc1Cl
914	COc1ccc(C)cc1NC(=O)NC1CCN(c2ccc(F)c(C)c2)C1=O (configuration not stated)
746	Cc1noc(-c2cccc(OC3CN(S(=O)(=O)c4cn(C)cn4)C3)c2)n1
688	Cc1ccc(CNC(=O)[C@@]23CCCC[C@H]2N(C)C(=O)CC3)cc1

RP-LC retention time [s]	Compound
668	Cc1ccc2nc(C(=O)NCc3ccc(F)cc3F)cn2c1
659	Cc1ccc(C(=O)N2CCN(c3nnc4cccc(C)n34)CC2)s1
802	CC(C)C(=O)Nc1cccn2nc(C3CCC3)nc12
723	CC(=O)c1cccc(NC(=O)Cn2c(N3CCc4ccccc4C3)nc(C)cc2=O)c1
685	COc1ccc(NC(=O)C(C)n2cnc3nc4c(cc3c2=O)CCCC4)cc1OC (configuration not stated)
750	CCOC(=O)C1CCN(C(=O)c2cc(=O)c(OCc3ccc(F)cc3)cn2C)CC1
1070	Cc1c(Cl)cccc1NC(=O)Cn1cnc2c(sc3nc(-c4ccccc4)ccc32)c1=O
1190	O=C1COc2cc(Cl)ccc2N1Cc1nc(-c2ccc(F)c(Cl)c2)no1
1180	O=S(=O)(c1ccc(Br)s1)N1CCCC1c1nc(-c2ccc(F)cc2)no1 (configuration not stated)
731	Cc1ccc(-c2cc(N3CCN(C(=O)c4cc(C)cc(C)c4)CC3)ncn2)cc1
921	CCOC(=O)Cc1ccc(NC(=O)N2CCCC2c2cccs2)cc1 (configuration not stated)
670	Cc1cccc(-n2ccnc2SCC(=O)Nc2nccs2)c1C
1040	COc1ccc(-c2nc(-c3cn(-c4cccc(Cl)c4)nn3)no2)cc1OC
652	Cc1cccc2nnc(N3CCN(C(=O)c4ccc(F)c(F)c4)CC3)n12
592	COc1cc(Nc2c(C(=O)N3CCCC3)cnc3nc(C)ccc23)cc(OC)c1OC
723	O=C(Nc1cccc(Cl)c1F)N1CCCC(Cn2c(C3CC3)nc3cccnc32)C1 (configuration not stated)
860	CC(C)N1C(=O)c2cccnc2Sc2cc(NC(=O)C3CCCC3)ccc21
640	CCc1cc(=O)n(CC(=O)Nc2ccc(C)c(C)c2)c(N)n1
618	Cc1nc2cccnc2n1CCN1CCN(C(=O)Nc2ccc(F)c(Cl)c2)CC1
1110	Cc1ccc(NC(=O)c2cc(C3CC3)n3nccc3n2)c(C)c1

Further lines, the molecule ahead of its results:

Compound	RP-LC retention time [s]
CN(Cc1ccccc1)C(=O)c1ccc(NC(=O)[C@H]2[C@@H]3C[C@@H]4[C@H]2C(=O)O[C@@H]4C3)cc1	775
CC1(CNC(=O)c2ccc(Br)cc2)CCOCC1	784
COC[C@@H]1CN(Cc2c(C)n[nH]c2C)C[C@H]1c1ccncc1	559
CC(NC(=O)CN1CN(c2ccccc2)C2(CCN(C(=O)CC(C)(C)C)CC2)C1=O)c1ccccc1 (configuration not stated)	931
COc1ccccc1-c1noc(-c2nn(-c3ccc(F)c(F)c3)ccc2=O)n1	807
O=S(=O)(c1ccccc1)N1CCC(Cc2nncn2-c2ccccc2)C1 (configuration not stated)	709
CC(C)CCNC(=O)CCCn1c(=O)c2cccn2c2ccccc21	859
FC(F)(F)c1cccc(-c2ccc(CNCC3CCNCC3)o2)c1	580
COc1ccccc1-c1nnc(-c2cc(S(=O)(=O)N3CCOCC3)ccc2Cl)o1	902
CCCCC(=O)N1CCCN(C2=NS(=O)(=O)C(c3ccc(C)c(C)c3)=C2C)CC1	886
O=C(CN1CCc2[nH]c3c(F)c(Cl)ccc3c(=O)c2C1)Nc1ccc2c(c1)OCCO2	643
O=C(Cn1cccc1-c1nnc(-c2ccccc2)o1)N1CCN(c2cccc(Cl)c2)CC1	1120
O=C(CC1CCN(C(=O)Nc2ccccc2)CC1)N1CCN(c2ccccn2)CC1	603
NC(=O)C1CCN(C(=O)CN2c3ccc(Br)cc3-c3ccccc3S2(=O)=O)CC1	705
O=C(NCCn1nnc2cc(C(=O)N3CCCC3)ccc21)Nc1ccc(F)cc1	662
CCOc1ccccc1C(=O)Nc1c(C(=O)Nc2ccccc2F)oc2cccnc12	841
CCCN(C(=O)c1cccc(OC)c1)c1nc(-c2ccccc2)cs1	1350
Cc1cc(-c2cc(S(=O)(=O)N3CCN(C4CCCCC4)CC3)c(C)s2)n[nH]1	657
COc1ccc(-c2coc3cc(OC(=O)c4ccc5c(c4)OCO5)ccc3c2=O)cc1OC	981
NC(=O)C1CCN(C(=O)Cc2cc(-c3ccc(F)cc3)on2)CC1	630
Cc1cc(S(=O)(=O)N2CCC3(CC2)NCCCN=C3NC2CCCC2)ccc1F	768
CC(C)n1cnc(S(=O)(=O)N2CCCC(C(=O)N3CCN(c4ccccn4)CC3)C2)c1 (configuration not stated)	581
CC1CCN(S(=O)(=O)c2cc(-c3nnc(C4CC4)o3)co2)CC1	945

Compound	RP-LC retention time [s]
CC(=O)N1c2ccc(S(=O)(=O)N3CCCC3)cc2CC1C(=O)NCCN(C)C1CCCCC1 (configuration not stated)	577
CCN(CC)CCNC(=O)c1cn(C)nc1S(=O)(=O)N1CCN(c2ccc(Cl)cc2)CC1	707
COc1ccc(CCc2nc3nccc(-c4ccc(F)cc4)n3n2)cc1OC	865
COC(=O)c1ccc(NC(=O)Cn2cccc(-c3nc(-c4ccccc4)no3)c2=O)cc1	829
CCOc1cc(C(=O)N2CCCC(C)(C(=O)NCc3ccc(F)cc3)C2)cc(OCC)c1OCC (configuration not stated)	978
CCOc1ccc(-n2nc(CO)c(C(=O)NC)n2)cc1	763
Cc1cc(=O)n(CC(=O)N2CCc3ccccc32)c(N2CCOCC2)n1	667
O=C(NCc1ccc(N2CCOCC2)cc1)C1CCCN(c2nccnc2Sc2ccccc2)C1 (configuration not stated)	933
O=C(c1nnn2c1COC(c1ccc(Cl)cc1)C2)N1CCN(C(=O)c2c(F)cccc2F)CC1 (configuration not stated)	951
CCc1ccc(-n2nnc(C(=O)N3CCC4(CC3)OCCO4)c2-c2ccncc2)cc1	766
O=C(C(c1ccccc1)n1cccc1)N1CCCC1 (configuration not stated)	782
CCOc1ccc(-c2nc(COc3cc(C(F)(F)F)c4c(C)nn(C)c4n3)c(C)o2)cc1OC	1330
CC(C)c1ccc(CNC(=O)CN2CCc3ccccc3C2C(=O)N2CCCC2)cc1 (configuration not stated)	908
CC1=C(c2ccc(C)cc2)S(=O)(=O)N=C1N1CCCN(C(=O)CCC(C)C)CC1	888
O=C(Cn1cccc(-c2nc(-c3ccc(Br)cc3)no2)c1=O)Nc1ccc2c(c1)OCO2	935
CN(CC1CCOCC1)C(=O)Cc1ccc(F)cc1	687
CS(=O)(=O)N1CCC(C(=O)Nc2nnc(SCc3ccccn3)s2)CC1	554
O=C([C@@H]1C[C@H](F)CN1C(=O)c1ccccc1Cl)N1CCOCC1	619
CS(=O)(=O)NC(=O)c1cc(Cl)c(COc2ccc(Cl)c(Cl)c2)cc1F	1170
O=C(c1ccc(Br)o1)N1CCN(c2ccc(=O)n(-c3ccc(Cl)cc3)n2)CC1	878
O=C(CC1CCN(S(=O)(=O)c2ccc(Cl)s2)CC1)NCCc1c[nH]c2ccccc12	945
O=C(c1ccccc1Br)N1CCc2nc(-c3ccc(F)cc3)ncc2C1	1010
O=C(C1CCN(c2nc3ccc(-c4ccsc4)nc3s2)CC1)N1CCOCC1	826
